Legend:
WT S. cerevisiae = experiment: Checkerboard assay, synergy with caspofungin; format: cell-based; conditions: S. cerevisiae, MIC80; for MIC of Caspofungin Combination: MIC of caspofungin in combination with the named compound; for MIC Combination: MIC of the compound in combination with caspofungin
Protocol: (§1) Fresh cell cultures of WT S. cerevisiae and C. albicans ATCC10231 (OD600 = 0.8) were diluted to 10^4 CFU/mL in YPD medium. The in vitro synergistic and antagonistic effects of compounds were determined using checkerboard assay. MIC endpoints were defined as the lowest concentration of drugs, causing 80% decrease in viability compared to the drug-free control (MIC80). The calculation and interpretation of the fractional inhibitory concentration index (FICI) were carried out by referring to the document standards. FICI = (MIC of drug A in combination) / (MIC of drug A alone) + (MIC of drug B in combination) / (MIC of drug B alone). FIC ≤0.5 was considered as a synergistic effect, and >2 was considered as antagonism.

C. albicans ATCC10231 = experiment: Checkerboard assay, synergy with caspofungin; format: cell-based; conditions: Candida albicans; for MIC of Caspofungin Combination: MIC of caspofungin in combination with the named compound; for MIC Combination: MIC of the compound in combination with caspofungin
Protocol: as §1

Chs1 = experiment: iTRAQ protein level of chitin synthase; format: cell-based, S. cerevisiae; conditions: 25 μg/mL, 16 hours
Protocol: (§2) WT cells were grown to 10^5 CFU/mL in YPD medium and then treated with 25 μg/mL compounds or 0.25% DMSO for 16 hours at 30 °C. The cells were collected by centrifugation at 1500 g for 5 min and then stored at −80 °C. The frozen samples were grounded to a fine powder with liquid nitrogen and then transferred to an Eppendorf tube with phenol extraction buffer containing 1 mM Phenylmethanesulfonyl fluoride (PMSF). The samples were lysed with sonication, and proteins were extracted with phenol and then precipitated with ammonium acetate/methanol. The methanol was excluded by acetone, and the precipitates were collected by centrifugation at 12,000 g for 10 min at 4 °C. The precipitates were dried at room temperature for 3 min and dissolved in SDS lysis buffer for 2 hours. The samples were further centrifuged at 12,000 g for 10 min, and the collected supernatants were centrifuged again to remove precipitation completely. After the determination of protein concentration using Pierce^TM BCA Protein Assay kit (Thermo Scientific, Rockford, IL, USA), the protein samples were aliquoted for storage at −80 °C.
(§3) The Filter Aided Sample Preparation (FASP) digestion was performed according to a universal sample preparation method for proteome analysis. Peptides were labeled by iTRAQ using iTRAQ Reagents Multiplex Kit (AB SCIEX, Framingham, MA, USA) and then were fractionated by SCX chromatography using the AKTA Purifier system (GE Healthcare, Stockholm, Sweden). LC-MS/MS analysis was performed on Nano LC-1D plus (Eksigent, San Francisco, CA, USA) that was coupled to Triple TOF 6600 spectrometer (AB SCIEX, Framingham, MA, USA) for 50 min. The mass spectrometer was operated in positive ion mode. The MS/MS data were analyzed for protein identification and quantification using ProteinPilot software (v.5). The local false discovery rate was estimated with the integrated PSPEP tool in the ProteinPilot Software to be 1% after searching against a decoy concatenated UniProt S. cerevisiae protein database. For a protein showing differential expression, it must have been identified and quantified with at least one significant peptide, and the p-values of the proteins quantitation should be less than 0.05 and fold change ≥1.5.

Chs2 = experiment: iTRAQ protein level of chitin synthase; format: cell-based, S. cerevisiae; conditions: 25 μg/mL, 16 hours
Protocol: as §2, §3

Chs3 = experiment: iTRAQ protein level of chitin synthase; format: cell-based, S. cerevisiae; conditions: 25 μg/mL, 16 hours
Protocol: as §2, §3

C. albicans [1] = experiment: Growth curve assay (OD600 over time); format: cell-based, Candida albicans; conditions: 50 μg/mL and 100 μg/mL, p < 0.05
Protocol: (§4) Fresh cell cultures of WT yeast S. cerevisiae and Candida albicans ATCC10231 (OD600 = 0.8) were diluted in YPD medium (OD600 = 0.05). Then, IMB-D10 and IMB-F4 were added at concentrations ranging from 12.5 to 100 μg/mL. The cells were collected at different time points, and OD600 was measured with Multi-label Reader. Three experiments were performed independently, and the mean ± SD was calculated.

WT yeast cells = experiment: Cell division morphology, light microscopy; format: cell-based, S. cerevisiae; conditions: treatment for 5 hours at 30 °C (IMB-D10 25 μg/mL)
Protocol: WT S. cerevisiae and C. albicans ATCC10231 were grown to 10^5 CFU/mL in YPD medium and then treated with IMB-D10 (12.5 or 25 μg/mL), IMB-F4 (12.5 or 25 μg/mL), or 0.25% DMSO for 3 and 5 hours at 30 ℃. Cells were collected by centrifugation at 1500 g for 5 min and resuspended in PBS. Some cells were examined using 100 × / 1.25 oil immersion objective (DM2500, Leica) and analyzed by Leica las. Some cells were stained with 100 μg/mL Calcofluor White M2R (CFW, Sigma-Aldrich, St. Louis, MO, USA for 3 min and washed three times with water. Then, the cells were examined under the UV light for fluorescent signals.

WT yeast cells (BY4741) = experiment: Growth curve assay (OD600 over time); format: cell-based, S. cerevisiae
Protocol: as §4

C. albicans [2] = experiment: MIC of CFW in the presence of compounds, checkerboard assay; format: cell-based, Candida albicans
Protocol: as §1

[3] = system: chitin content in WT yeast cells; experiment: Chitin content assay (Morgan–Elson method); format: cell-based, S. cerevisiae; conditions: 16 hours at 30 °C
Protocol: The chitin content was assessed by measuring the level of D-glucosamine according to the method described by Morgan–Elson. WT yeast cells were grown to 10^5 CFU/ml in YPD medium and then treated with IMB-D10 (12.5 μg/mL), IMB-F4 (25 μg/mL), or DMSO (0.25%) for 16 hours at 30 °C. Cells were collected by centrifugation at 1500 g for 5 min and then freeze-dried after being washed twice with deionized water. Five-milligram sample was weighted and hydrolyzed by H2SO4 at 100 °C for 4 hours. The hydrolysates were centrifuged at 12,000 rpm for 5 min. We removed 100 μL supernatant to another tube and adjusted pH value to 3 with 2 M KOH; then the volume was set to 1 mL with water. One milliliter acetylacetone (7% acetylacetone in 1 M Na2CO3) was added into the tube and incubated for 25 min at 100 °C. The 1.5 mL Ehrlich^’s reagent and 1.5 mL absolute ethyl alcohol were added into the tube for further incubation for 1 hour at 60 °C. The OD520 was determined with BioMet 3S UV-Visible Spectrophotometer (Thermo Scientific^TM, Waltham, MA, USA). N-acetyl-D-glucosamine was used to establish a standard curve for the quantification of chitin levels. All reactions were performed in triplicate.

Chain of Chs2 (P14180 whole entry): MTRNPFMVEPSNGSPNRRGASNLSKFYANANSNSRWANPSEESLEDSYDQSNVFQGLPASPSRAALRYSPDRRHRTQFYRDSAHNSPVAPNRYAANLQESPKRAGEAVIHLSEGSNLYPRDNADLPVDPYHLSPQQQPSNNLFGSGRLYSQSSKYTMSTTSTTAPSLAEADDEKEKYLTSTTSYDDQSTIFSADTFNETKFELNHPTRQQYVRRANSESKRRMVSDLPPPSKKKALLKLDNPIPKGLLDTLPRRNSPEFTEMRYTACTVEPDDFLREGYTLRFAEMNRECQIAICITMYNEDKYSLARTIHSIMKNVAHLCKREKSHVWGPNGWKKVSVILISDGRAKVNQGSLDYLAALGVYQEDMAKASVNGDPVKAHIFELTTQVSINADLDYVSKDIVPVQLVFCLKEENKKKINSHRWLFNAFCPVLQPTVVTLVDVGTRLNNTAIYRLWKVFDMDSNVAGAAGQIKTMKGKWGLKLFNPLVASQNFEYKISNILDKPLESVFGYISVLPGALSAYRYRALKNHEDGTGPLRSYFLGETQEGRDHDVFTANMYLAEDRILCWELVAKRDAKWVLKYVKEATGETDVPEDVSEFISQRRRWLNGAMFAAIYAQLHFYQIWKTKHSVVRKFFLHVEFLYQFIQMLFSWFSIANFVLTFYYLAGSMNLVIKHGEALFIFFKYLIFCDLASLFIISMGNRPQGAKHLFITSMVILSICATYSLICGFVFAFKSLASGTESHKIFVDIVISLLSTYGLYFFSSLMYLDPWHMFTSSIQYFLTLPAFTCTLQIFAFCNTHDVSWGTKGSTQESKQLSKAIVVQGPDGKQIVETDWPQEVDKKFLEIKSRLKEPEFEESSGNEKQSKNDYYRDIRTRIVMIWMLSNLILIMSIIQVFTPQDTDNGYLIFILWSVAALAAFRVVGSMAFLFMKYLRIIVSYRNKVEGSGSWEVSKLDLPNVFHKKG
Chain of Chs1 (P08004 whole entry): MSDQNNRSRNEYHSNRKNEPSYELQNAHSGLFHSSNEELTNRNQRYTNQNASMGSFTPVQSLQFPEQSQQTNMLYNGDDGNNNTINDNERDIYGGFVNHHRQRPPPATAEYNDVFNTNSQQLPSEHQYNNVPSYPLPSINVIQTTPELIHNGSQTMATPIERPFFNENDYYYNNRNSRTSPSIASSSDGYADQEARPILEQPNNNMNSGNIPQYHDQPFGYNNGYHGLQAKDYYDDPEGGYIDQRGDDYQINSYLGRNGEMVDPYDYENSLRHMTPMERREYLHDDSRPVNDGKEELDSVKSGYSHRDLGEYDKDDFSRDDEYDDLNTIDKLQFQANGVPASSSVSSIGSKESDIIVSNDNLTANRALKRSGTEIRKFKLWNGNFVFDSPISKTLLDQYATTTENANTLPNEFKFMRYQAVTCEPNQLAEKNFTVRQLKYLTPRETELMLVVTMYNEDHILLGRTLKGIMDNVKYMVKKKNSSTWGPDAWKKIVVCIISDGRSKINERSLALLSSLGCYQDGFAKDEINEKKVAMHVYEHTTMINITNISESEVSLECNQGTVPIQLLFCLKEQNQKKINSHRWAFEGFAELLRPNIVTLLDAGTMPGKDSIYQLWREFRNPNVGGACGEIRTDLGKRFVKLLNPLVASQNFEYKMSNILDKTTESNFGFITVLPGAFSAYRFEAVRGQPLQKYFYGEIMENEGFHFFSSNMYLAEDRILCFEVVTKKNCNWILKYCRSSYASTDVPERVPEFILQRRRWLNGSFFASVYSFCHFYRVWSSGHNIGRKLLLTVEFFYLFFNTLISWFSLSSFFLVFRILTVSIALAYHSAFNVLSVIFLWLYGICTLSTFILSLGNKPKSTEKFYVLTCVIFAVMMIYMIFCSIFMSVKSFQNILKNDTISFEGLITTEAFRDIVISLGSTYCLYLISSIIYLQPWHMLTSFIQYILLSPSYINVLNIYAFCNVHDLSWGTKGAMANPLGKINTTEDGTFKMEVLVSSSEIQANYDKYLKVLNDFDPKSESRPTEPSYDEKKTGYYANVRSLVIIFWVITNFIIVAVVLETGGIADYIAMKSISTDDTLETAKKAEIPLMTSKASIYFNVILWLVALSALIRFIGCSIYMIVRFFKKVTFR
Chain of Chs3 (P29465 whole entry): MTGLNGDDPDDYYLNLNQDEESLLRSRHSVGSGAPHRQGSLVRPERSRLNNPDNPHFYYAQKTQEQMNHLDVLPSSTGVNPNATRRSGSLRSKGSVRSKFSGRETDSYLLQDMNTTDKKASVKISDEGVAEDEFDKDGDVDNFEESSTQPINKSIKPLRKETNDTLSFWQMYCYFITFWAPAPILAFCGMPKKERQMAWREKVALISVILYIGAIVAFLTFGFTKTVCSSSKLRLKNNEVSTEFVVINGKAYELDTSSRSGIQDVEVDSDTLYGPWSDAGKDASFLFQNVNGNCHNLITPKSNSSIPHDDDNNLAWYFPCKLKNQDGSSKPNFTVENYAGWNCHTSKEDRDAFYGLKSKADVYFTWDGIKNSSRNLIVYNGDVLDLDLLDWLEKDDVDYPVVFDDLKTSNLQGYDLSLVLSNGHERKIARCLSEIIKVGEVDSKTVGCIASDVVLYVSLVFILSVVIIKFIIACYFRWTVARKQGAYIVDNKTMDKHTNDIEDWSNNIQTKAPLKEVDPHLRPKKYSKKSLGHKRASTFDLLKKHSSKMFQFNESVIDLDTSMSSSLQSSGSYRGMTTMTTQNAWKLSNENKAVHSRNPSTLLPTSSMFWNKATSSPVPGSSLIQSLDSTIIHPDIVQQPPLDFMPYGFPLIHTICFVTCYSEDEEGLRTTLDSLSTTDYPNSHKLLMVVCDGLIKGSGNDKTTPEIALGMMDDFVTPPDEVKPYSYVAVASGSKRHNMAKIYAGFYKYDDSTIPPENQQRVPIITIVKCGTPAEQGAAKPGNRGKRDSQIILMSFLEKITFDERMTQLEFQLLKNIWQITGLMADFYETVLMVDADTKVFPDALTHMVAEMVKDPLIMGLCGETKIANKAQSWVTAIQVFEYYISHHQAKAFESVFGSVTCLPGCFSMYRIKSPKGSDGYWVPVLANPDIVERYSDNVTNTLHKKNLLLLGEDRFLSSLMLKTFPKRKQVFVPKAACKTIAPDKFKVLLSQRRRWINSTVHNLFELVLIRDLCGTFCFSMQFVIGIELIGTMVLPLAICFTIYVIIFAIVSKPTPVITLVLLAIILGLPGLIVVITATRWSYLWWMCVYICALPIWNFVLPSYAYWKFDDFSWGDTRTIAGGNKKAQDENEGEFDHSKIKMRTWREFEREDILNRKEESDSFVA

Row | Molecule | MIC of Caspofungin Combination (WT S. cerevisiae) | MIC Combination (WT S. cerevisiae) | MIC Alone (WT S. cerevisiae; compound alone) | MIC of Caspofungin Combination (C. albicans ATCC10231; MIC80) | MIC Combination (C. albicans ATCC10231; MIC80) | MIC Alone (C. albicans ATCC10231; compound alone, MIC80) | relative abundance of Chs1 compared with cells treated with DMSO (Chs1) | relative abundance of Chs2 compared with cells treated with DMSO (Chs2) | relative abundance of Chs3 compared with cells treated with DMSO (Chs3) | growth of C. albicans over time (C. albicans [1]) | cell division / cell separation morphology (WT yeast cells) | growth of yeast cells over time (OD) (WT yeast cells (BY4741)) | MIC of CFW in the presence of IMB-D10 (C. albicans [2]; C. albicans, IMB-D10 at 50 μg/mL) | relative chitin content compared to cells treated with DMSO ([3]; 12.5 μg/mL) | relative chitin content compared to cells treated with DMSO ([3]; 25 μg/mL) | MIC (WT S. cerevisiae; Saccharomyces cerevisiae, compound alone, read-out: MIC Alone) | MIC (C. albicans ATCC10231; ATCC10231, compound alone, MIC80, read-out: MIC Alone) | FICI (C. albicans ATCC10231; fractional inhibitory concentration index with caspofungin, ≤0.5 synergistic) | resistance of C. albicans to CFW (C. albicans [2]; 25 and 50 μg/mL IMB-F4)
1 | N-(2-(diethylamino) ethyl)-N-(7-hydroxy-4-methoxybenzo[d]thiazol -2-yl)-2-oxo-2H-chromene-3-carboxamide [IMB-D10] | 0.0075 mg/L | 12.5 mg/L | 50 mg/L | 0.00625 mg/L | 12.5 mg/L | 100 mg/L | 22 ± 5.10% | 21.33 ± 6.18% | 18.33 ± 1.89% | reduced after 4 hours incubation | some yeast cells failed to divide | dose-dependent slow growth | 100 mg/L | did not reduce the chitin level significantly | 47.61 ± 6.79% |  |  |  | 
2 | COc1cc(OC)cc(C(=O)N(CCn2ccnc2)c2nc3ccc(OC)cc3s2)c1 [IMB-F4, N-(2-(1H-imidazol-1-yl)ethyl)-3,5-dimethoxy-N-(6-methoxybenzo[d]thiazol-2-yl)benzamide] | 0.0075 mg/L | 25 mg/L |  | 0.003125 mg/L | 12.5 mg/L |  | remained similar | remained similar | remained similar | growth inhibition was observed after incubation for 6 hours | normal cell separation | dose-dependent slow growth |  | 46.09 ± 8.01% | 27 ± 5.33% | > 100 mg/L | > 100 mg/L | <0.5 | increased the resistance
